Results as given in US20080241870A1, “Composition For Creating an Artificial Bone Marrow Like Environment and Use Thereof” (NATIONAL CENTRE FOR CELL SCINECES, priority 2005, published 2008).

Experiments:
Type in all cases: cell-based, human
SPC = assay: priming of SPC before contact with ABME, colony formation; conditions: for colony/blood cell formation after priming SPC: SPC primed with agent
Text: Experiments were directed to determine if the ABME had properties that promoted cell survival.

αiib:β3 integrin = assay: engraftment: HCFA of CD34+ SPC attached to ABME formed via αiib:β3 integrin signaling; conditions: FIG. 7
Protocol: The mesenchyme cells (5×10^4 cells per well in a 24 well dish) were grown in IMDM plus 20% fetal bovine serum until they were nearly confluent. The medium was removed and was washed 2× with PBS. ABME was prepared by using a chemical hematomodulator [Biotin-Ser-Gly-Ser-Gly-Cys*-Asn-Pro-Arg-Gly-Asp (Tyr-OMe)Arg-Cys*Lys (cyclised between C*-C*), 10 microgram ml^−1, 18 hours] that selectively activated αiib:β3 integrin signaling in the mesenchyme cells. The ABME formed was washed 2× with PBS and was covered with 0.2 ml of a suspension of CD34^+ SPC cells (10^5 ml−1) for 1 hour, in the presence or absence of another peptide [1-Adamantaneacetyl-Cys*Gly-Arg-Gly-Asp-Ser-Pro-C(Cyclised between Cys*-Cys*)]which inhibited the interactions of αiib:β3 integrin. At the end of incubation, the cells were washed 2× with PBS and were processed for hematopoietic colony formation assays (HCFA). […] More specifically, the quantities of hematopoietic growth factors used routinely in HCFA were, 2 International Units per milliliter (2 I.U.ml^−1) of Erythropoietin (EPO), 50 nanogram per milliliter (50 ng.ml^−1) of Stem Cell Factor (SCF) and 20 nanogram per milliliter (20 ng/ml^−1) each of Granulocyte-Macrophage-Colony Stimulating Factor (GM-CSF), Granulocyte-Colony Stimulating Factor (G-CSF), Interleukin-1 beta (IL-1β), Interleukin-3 (IL-3) and Interleukin-6 (IL-6). […]

[1] = system: mesenchymal cells (ABME) with MNC; assay: quantitative hematopoietic colony formation assay for ABME (HCFA-ABME): MNC with hematomodulator-contacted mesenchymal cells
Text: As described above, the medium for blood cell formation employed may be IMDM with 20% serum and supplemented with interleukins such as IL-lbeta, IL-3, and IL-6, stem cell factor, lineage specific growth factors such as erythropoietin and GM-CSF, G-CSF; and methyl cellulose to the extent of 0.8%, the culture is maintained for 12-14 days under the culture conditions whereby blood cell colonies grow well or form colonies and clearly the growth is visible/distinguishable for further analysis and use. An assay designed in a similar manner to assess quantitative nature of ABME function is referred hereafter as ‘quantitative hematopoietic colony formation assay for ABME (HCFA-ABME)’.
Several experiments were conducted to determine that mesenchymal cells exert direct influence on SPC cell-fate. In one set of experiments, mesenchymal cells were cultured separately and nearly 50,000 of them were exposed to a typical HCFA medium comprising 0.8% methyl cellulose in IMDM and 20-30% serum along with excess amounts of various purified and human specific cytokines and hematopoietic colony stimulating growth factors (from Stem cell Technologies, […], Canada). More specifically, the quantities of hematopoietic growth factors used routinely in HCFA were, 2 International Units per milliliter (2 I.U.ml^−1) of Erythropietin (EPO), 50 nanogram per milliliter (50 ng.ml^−1) of Stem Cell Factor (SCF) and 20 nanogram per milliliter (20 ng/ml^−1) each of Granulocyte-Macrophage-Colony Stimulating Factor (GM-CSF), Granulocyte-Colony Stimulating Factor (G-CSF), Interleukin-1 beta (IL-1β), Interleukin-3 (IL-3) and Interleukin-6 (IL-6) {all growth factors and cytokines are from Stem cell Technologies, Vancouver, Canada,}.
In another set of experiments, 50,000 of the same mesenchymal cells were first mixed with nearly 100,000 MNC, held at 37° C. for at least 30 minutes and were processed for colony formation assays. In several experiments, a consistent improvement in the number and cellularity of the hematopoietic colonies was seen when both these two cell types were mixed compared to a reference where only the cells of MNC were used. The increase was ranging from 1.5 to 10-fold. Thus, the enhancement in colony formation obtained with the use of only mesenchymal cells was highly variable and unpredictable among samples. The fact that hematopoietic colonies formed in increased numbers and cellularity only when MNC and mesenchymal cells were processed together is evidence of a new environment created by the mesenchymal cells in which the SPC present in the MNC were more productive. This increase results in activation of the pre-existing but quiescent SPC, formation of new SPC due to self-renewal, and a combination of both factors.
In order to create ABME, the mesenchymal cells were covered with the contacting medium comprising hematomodulators contained in IMDM with 20% human serum or fetal bovine serum for a desirable period (range 8-24 hours) and removed. The contacted cells were then washed 2 times using the contacting medium (IMDM +20% FCS) without hematomodulators and used as such or after harvesting the mesenchymal cells, which now represent the composition of in vitro ABME. Optionally, ABME cells can be configured on supports that will distribute them in two or more dimensions for better results. A requisite number of MNC/SPC and cells of the ABME are taken and kept together for a suitable duration (range 0.5 to 6 hours) after which they were processed for in vitro hematopoietic colony formation assays or hematopoiesis.
Thus, the inventors undertook 4 sets of experiments: (a) wherein mononuclear cells were exposed to mesenchymal cells without any treatment; (b) wherein MNC were exposed to mesenchymal cells contacted with a biological agent [TGFβ1] […]

CD34+ SPC = assay: lineage commitment: HCFA with CD34+ SPC, count of mature blood cells after 14 days
Protocol: The mesenchyme cells (5×10^4 cells per well in a 24 well dish) were grown in IMDM plus 20% fetal bovine serum until they were nearly confluent. The medium was removed and was washed 2× with PBS. Two different ABME were prepared by using two biological hematomodulators (TGFβ1 10 ngml^−1, bFGF 10 ngml^−1, 18 hours) separately. The ABME formed was washed 2× with PBS and was covered with 0.2 ml of a suspension of CD34^+ SPC cells (10^5 ml−1) for 1 hour at 37° C. All the cells of the dish were then harvested after washing and were used in a HCFA. After 14 days, the mature blood cells formed were harvested and an aliquot of the suspension was examined under the microscope to identify and count the mature lymphoid and myeloid cells.
The mesenchyme cells (5×10^4 cells per well in a 24 well dish) were grown in IMDM plus 20% fetal bovine serum until they were nearly confluent. The medium was removed and was washed 2× with PBS. The cells in one well were treated with a DiBromo derivative of the Calcium ion chelator BAPTA (5 micromolar) for one hour whereas another well received only the medium without the BAPTA derivative. After 1 hour of incubation at 37° C., TGFβ1 was added to both the wells (10 ng ml−1) and the incubation was continued for a further period of 18 hours. The ABME formed in both wells were washed and were used for HCFA using CD34^+ SPC. After 14 days the mature blood cells were harvested and were quantitated for the cells of erythroid and myeloid lineage.

Compound: Latency Associated peptide of human TGF beta1.
- colony/blood cell formation after priming SPC (SPC): improved colony/blood cell formation

Compound: IGF-II: priming agent, Mannose6-phosphate/IGF-II receptor
- colony/blood cell formation after priming SPC (SPC): improved colony/blood cell formation

Compound: IGF-1: priming agent activating IGF-I receptor signals
- colony/blood cell formation after priming SPC (SPC): improved colony/blood cell formation

Compound: Biotin-Ser-Gly-Ser-Gly-Cys*-Asn-Pro-Arg-Gly-Asp (Tyr-OMe)Arg-Cys*Lys (cyclised between C*-C*)
- hematopoietic colonies formed by ABME (activating peptide) (αiib:β3 integrin; 10 microgram ml^-1, 18 hours, CD34+ SPC 1 hour, HCFA 12-14 days): significantly more number of hematopoietic colonies

Compound: NC(=O)c1cccc(N)c1 [3 Amino Benzamide, reference compound]
- colony/blood cell formation after priming SPC (SPC): improved colony/blood cell formation
- number of hematopoietic colonies formed from treated SPC (SPC; SPC treated to inhibit Poly(ADP-ribose) Polymerase, FIG. 9): synergistically increasing the number of hematopoietic colonies formed

Compound: HuFGF-2
- efficiency of ABME created ([1]; 1-25 nano gram.ml^-1, mesenchymal cells contacted 8-24 hours): equally efficient ABME
- colony formation along lineages GEMM, BFU-E and GM ([1]; lineage specific colony formation assay, FIG. 3A, vs control without biological agent): uniformly stimulated
- potency in creating ABME from mesenchymal cells ([1]; used separately): nearly equipotent
- mature lymphoid and myeloid cells formed (CD34+ SPC; 10 ngml^-1, 18 hours, HCFA 14 days, FIG. 8a): more of lymphoid cells were produced

Compound: CC(C)[C@H]1C(=O)N[C@H](CO)Cc2c[nH]c3cccc(c23)N1C [chemical agent 1, (—) Indolactam V, reference compound]
- colonies of cells relative to (A) ([1]; MNC exposed to mesenchymal cells contacted with chemical agent, (A) = untreated mesenchymal cells): at least 4 times

Compound: 1-Adamantaneacetyl-Cys*Gly-Arg-Gly-Asp-Ser-Pro-C(Cyclised between Cys*-Cys*) (GRGDSP; N-terminal 1-adamantaneacetyl-Cys, C-terminal Cys; cyclised Cys-Cys; printed: Gly-Arg-Gly-Asp-Ser-Pro-)
- hematopoietic colony numbers in presence of inhibitory peptide (αiib:β3 integrin; inhibitor present during SPC contact with ABME formed by activating peptide): colony numbers decreased in an inhibitor dose dependent manner

Compound: O=C(O)CN(CC(=O)O)c1ccc(Br)cc1OCCOc1cc(Br)ccc1N(CC(=O)O)CC(=O)O [DiBromo BAPTA, DiBromo derivative of Ca^++ chelator BAPTA, reference compound]
- proportion of myeloid and erythroid cells (CD34+ SPC; 5 micromolar for one hour, then TGFβ1 10 ng ml-1 18 hours, vs TGFβ1 alone, FIG. 8b): significant difference in the proportion of myeloid and erythroid cell population
